Test results reported in ChEMBL document CHEMBL1153655, “Rational design and synthesis of a novel, selective class of thrombin inhibitors: P1-argininal derivatives incorporating P3P4 quaternary lactam dipeptide surrogates” (Bioorg Med Chem Lett, 1997).

Assays:
Prothrombin = Prothrombin (Homo sapiens, UniProt P00734); assay: The compound was tested in vitro for inhibitory activity against Coagulation factor II
Serine protease 1 = Serine protease 1 (Homo sapiens, UniProt P07477); assay: The compound was tested in vitro for inhibitory activity against human trypsin
Coagulation factor X [1] = biological target: T1, Coagulation factor X (Homo sapiens, UniProt P00742); assay: The compound was tested in vitro for inhibitory activity against Coagulation factor X
Coagulation factor X [2] = biological target: T1, Coagulation factor X; assay: The compound was tested in vitro for inhibitory activity against Coagulation factor X; Inactive
Coagulation factor X [3] = biological target: T1, Coagulation factor X; assay: The compound was tested in vitro for inhibitory activity against Coagulation factor X; inactive

T1 sequence (P00742 41-179 limits assumed): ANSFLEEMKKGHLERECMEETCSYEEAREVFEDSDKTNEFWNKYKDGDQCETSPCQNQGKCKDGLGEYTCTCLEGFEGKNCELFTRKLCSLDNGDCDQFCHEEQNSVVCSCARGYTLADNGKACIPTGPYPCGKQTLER
T1 sequence (P00742 235-488 limits assumed): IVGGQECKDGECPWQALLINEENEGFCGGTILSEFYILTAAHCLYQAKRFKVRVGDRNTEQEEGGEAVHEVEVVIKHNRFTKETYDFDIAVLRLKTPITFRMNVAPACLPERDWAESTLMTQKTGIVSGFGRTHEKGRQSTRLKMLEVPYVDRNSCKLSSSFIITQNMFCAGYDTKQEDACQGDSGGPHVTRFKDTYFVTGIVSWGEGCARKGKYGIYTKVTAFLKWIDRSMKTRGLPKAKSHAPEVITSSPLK
Sequence of Serine protease 1 (P07477 whole entry): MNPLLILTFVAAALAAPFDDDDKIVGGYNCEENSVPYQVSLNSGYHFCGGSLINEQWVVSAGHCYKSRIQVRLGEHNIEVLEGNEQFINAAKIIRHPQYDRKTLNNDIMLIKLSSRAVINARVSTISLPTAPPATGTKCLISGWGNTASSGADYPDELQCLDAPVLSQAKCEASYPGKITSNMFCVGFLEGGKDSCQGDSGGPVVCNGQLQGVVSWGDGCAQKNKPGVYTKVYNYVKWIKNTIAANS

| Compound | IC50 (Prothrombin) [nM] | IC50 (Serine protease 1) [nM] | IC50 (Coagulation factor X [1]) [nM] | IC50 (Coagulation factor X [2]) | IC50 (Coagulation factor X [3]) |
| --- | --- | --- | --- | --- | --- |
| N=C(N)N1CCC[C@H](NC(=O)CN2CC[C@@](N)(Cc3ccccc3)C2=O)C1O (some centres undefined) | 1380 | 1380 | 2500 |  |  |
| CS(=O)(=O)NC1(Cc2ccccc2)CCCN(CC(=O)N[C@H]2CCCN(C(=N)N)C2O)C1=O (some centres undefined) | 31.9 | 52.2 | > 2500 |  |  |
| N=C(N)N1CCC[C@H](NC(=O)CN2CCCC[C@@](N)(Cc3ccccc3)C2=O)C1O (some centres undefined) | 14.9 | 969 | > 2500 |  |  |
| N=C(N)N1CCC[C@H](NC(=O)CN2CCC[C@@](N)(Cc3ccccc3)C2=O)C1O.O=C(O)C(F)(F)F (some centres undefined) | 2.07 | 139 |  | Not Active |  |
| N=C(N)N1CCC[C@H](NC(=O)CN2CCC[C@H](NS(=O)(=O)Cc3ccccc3)C2=O)C1O (some centres undefined) |  | 1270 | > 2500 |  |  |
| COC(=O)NC1(Cc2ccccc2)CCCCN(CC(=O)N[C@H]2CCCN(C(=N)N)C2O)C1=O (some centres undefined) | 466 | 2500 | 2500 |  |  |
| N=C(N)N1CCC[C@H](NC(=O)CN2CCCC[C@](N)(Cc3ccccc3)C2=O)C1O.O=C(O)C(F)(F)F (some centres undefined) | 193 | 2500 |  | Not Active |  |
| N=C(N)N1CCC[C@H](NC(=O)CN2CCCC[C@H](NS(=O)(=O)Cc3ccccc3)C2=O)C1O (some centres undefined) | 0.71 | 152 | 22.8 |  |  |
| N=C(N)N1CCC[C@H](NC(=O)CN2CCC(NS(=O)(=O)Cc3ccccc3)C2=O)C1O (some centres undefined) | 125 | 538 | > 2500 |  |  |
| N=C(N)N1CCC[C@H](NC(=O)CN2CCC[C@](N)(Cc3ccccc3)C2=O)C1O.O=C(O)C(F)(F)F (some centres undefined) | 138 | 2500 |  |  | Not Active |
